pIC50: −log10 of the molar value.
Experiments:
[1] = molecular target: PRMT5-MEP50 enzyme complex (Homo sapiens (Human), UniProt O14744); assay: PRMT5 enzyme activity in vitro assay (methylation of histone H4R3, ELISA absorbance at 450 nm); format: biochemical; conditions: SAM, histone H4 peptide, 2 hours at room temperature, 8 points from 10 μM to 0.128 nM
Experimental: Method for Measuring Enzyme Activity
In vitro assay: PRMT5-MEP50 enzyme complex, cofactor S-adenosylmethionine (SAM) and histone H4 peptide were reacted in vitro, and methylation of arginine (H4R3)—which is the third amino acid of histone H4—was measured in order to measure the enzyme activity of PRMT5.
S-adenosylmethionine was purchased from NEB (New England Biolabs, USA, Catalog No. B9003S).
Experimental procedure: The histone H4 peptide was diluted with carbonate-bicarbonate buffer and prepared to 100 μg/mL, and then dispensed onto the plate per 100 μL and reacted at 37° C. for 1 hour. PRMT5-MEP50 enzyme complex and S-adenosylmethionine were diluted with histone methyltransferase reaction buffer to prepare 5 μg/mL and 2 μM, respectively, and then 20 μL of PRMT5-MEP50 enzyme complex and 25 μL of S-adenosylmethionine were dispensed onto the plate prepared above. 5 μL of the compound diluted with 10% dimethyl sulfoxide solution was added thereto and reacted at room temperature for 2 hours (final volume=50 μL). […] After preparing the primary antibody by diluting 1:2000 with blocking buffer, 100 μL was added to the plate and reacted at room temperature for 1 hour. […] Then, the absorbance at 450 nm was measured to calculate the IC50 value of the compound. […]

[2] = test system: SDMA levels in U87MG tumor; assay: Test for in vivo target inhibitory activity (SDMA levels in U87MG tumor); conditions: U87MG tumor implanted subcutaneously in nude mice, oral 25 or 50 mg/kg 1-2 times daily for one week
Experimental: Test for In Vivo Target Inhibitory Activity
After U87MG tumor cells were implanted subcutaneously in nude mice, a PRMT5 inhibitor was administered orally (25 or 50 mg/kg) 1-2 times daily for one week, and then the degree to which SDMA levels in the tumor decreased was measured.
Reagents: Bradford's solution (Catalog No. 500-0006) was purchased from Bio-rad (USA). SDMA antibody (Catalog No. 13222s) was purchased from Cell Signaling Technology (USA). SmD3 antibody (Catalog No. ap12451a) was purchased from Abgent (USA), and secondary antibody (Catalog No. ab6721) and TMB substrate (Catalog No. ab210902) were purchased from Abcam (UK).
Experimental procedure: The tumor tissues transplanted into the mice were excised, the cells were lysed, and then quantified with Bradford's solution. 5-10 μg of protein per sample was diluted with carbonate-bicarbonate buffer and dispensed into a 96-well plate and reacted at room temperature for 2 hours. After washing with phosphate buffered saline (PBST) containing 0.05% Tween-20 3 times, 200 μL of PBST containing 5% bovine serum albumin (BSA-PBST) was added and reacted at room temperature for 2 hours. After washing with PBST 3 times, the SDMA antibody and the SmD3 antibody were diluted in BSA-PBST, and 100 μL of each was dispensed onto the plate and reacted at 4° C. overnight. After washing with PBST 3 times the next day, 100 μL of the secondary antibody diluted in BSA-PBST was added and reacted at room temperature for 1 hour. After washing with PBST 3 times, 100 μL of TMB substrate was added and reacted at room temperature for 10-20 minutes, and 100 μL of 1N sulfuric acid solution was added to terminate the reaction. Then, the absorbance at 450 nm was measured to calculate the degree of SDMA inhibition by the compound. (+++: more than 70%, ++: more than 30% and 70% or less, +: 30% or less)

Sequence of PRMT5-MEP50 enzyme complex (O14744 2-637): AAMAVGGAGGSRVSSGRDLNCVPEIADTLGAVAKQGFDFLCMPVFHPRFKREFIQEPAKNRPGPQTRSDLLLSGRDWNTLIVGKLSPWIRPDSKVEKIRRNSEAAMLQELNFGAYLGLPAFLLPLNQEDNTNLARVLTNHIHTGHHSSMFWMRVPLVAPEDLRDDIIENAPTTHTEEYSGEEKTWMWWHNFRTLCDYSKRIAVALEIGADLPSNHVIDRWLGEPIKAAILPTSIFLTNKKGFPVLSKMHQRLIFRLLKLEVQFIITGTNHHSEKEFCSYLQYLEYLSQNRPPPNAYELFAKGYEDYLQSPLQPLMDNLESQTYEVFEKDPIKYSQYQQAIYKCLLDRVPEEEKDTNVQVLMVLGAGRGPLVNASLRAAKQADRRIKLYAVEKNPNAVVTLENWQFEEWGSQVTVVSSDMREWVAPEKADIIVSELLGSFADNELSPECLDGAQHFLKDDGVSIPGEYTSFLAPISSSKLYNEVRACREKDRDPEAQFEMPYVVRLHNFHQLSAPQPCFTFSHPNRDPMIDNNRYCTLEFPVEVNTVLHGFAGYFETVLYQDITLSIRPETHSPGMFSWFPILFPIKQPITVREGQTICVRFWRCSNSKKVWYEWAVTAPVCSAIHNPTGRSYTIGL
Sequence of PRMT5-MEP50 enzyme complex (Q9BQA1 2-342 partner): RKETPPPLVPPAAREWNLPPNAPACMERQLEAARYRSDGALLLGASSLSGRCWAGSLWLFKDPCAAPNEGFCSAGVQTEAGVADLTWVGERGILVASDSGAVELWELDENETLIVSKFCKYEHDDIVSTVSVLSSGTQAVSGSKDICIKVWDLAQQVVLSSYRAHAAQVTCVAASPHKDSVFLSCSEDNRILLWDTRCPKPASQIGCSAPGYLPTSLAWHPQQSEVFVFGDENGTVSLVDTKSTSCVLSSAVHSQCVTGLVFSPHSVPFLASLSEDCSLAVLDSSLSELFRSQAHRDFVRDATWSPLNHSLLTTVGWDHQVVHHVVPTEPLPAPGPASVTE

SMILES | pIC50 [1] | SDMA inhibition (%) [2]
COc1ccc2c(c1)OCCN(CC(O)CN1CCc3ccccc3C1)C2=O (centres unmarked) [Example 1, 4-[3-(3,4-dihydro-1H-isoquinolin-2-yl)-2-hydroxy-propyl]-8-methoxy-2,3-dihydro-1,4-benzoxazepin-5-one] | 6.00 to 7.00 | 
O=C1c2ccc(CN3CCOCC3)cc2OCCN1C[C@H](O)CN1CCc2ccccc2C1 [Example 22, 4-[(2R)-3-(3,4-dihydro-1H-isoquinolin-2-yl)-2-hydroxy-propyl]-8-(morpholinomethyl)-2,3-dihydro-1,4-benzoxazepin-5-one] |  | +++ (+++: more than 70%)
CN1CCC(Oc2ccc3c(c2)OCCN(C[C@H](O)CN2CCc4ccccc4C2)C3=O)CC1 [Example 87, 4-[(2R)-3-(3,4-dihydro-1H-isoquinolin-2-yl)-2-hydroxy-propyl]-8-[(1-methyl-4-piperidyl)oxy]-2,3-dihydro-1,4-benzoxazepin-5-one] |  | +++ (+++: more than 70%)
CCN1CCC(Oc2ccc3c(c2)OCCN(C[C@H](O)CN2CCc4ccccc4C2)C3=O)CC1 [Example 88, 4-[(2R)-3-(3,4-dihydro-1H-isoquinolin-2-yl)-2-hydroxy-propyl]-8-[(1-ethyl-4-piperidyl)oxy]-2,3-dihydro-1,4-benzoxazepin-5-one] |  | +++ (+++: more than 70%)
O=C1c2ccc(OC3CCN(C4COC4)CC3)cc2OCCN1C[C@H](O)CN1CCc2ccccc2C1 [Example 92, 4-[(2R)-3-(3,4-dihydro-1H-isoquinolin-2-yl)-2-hydroxy-propyl]-8-[[1-(oxetan-3-yl)-4-piperidyl]oxy]-2,3-dihydro-1,4-benzoxazepin-5-one] |  | +++ (+++: more than 70%)
CN1CCC(Oc2ccc3c(c2)OC(C)(C)CN(C[C@H](O)CN2CCc4ccccc4C2)C3=O)CC1 [Example 112, 4-[(2R)-3-(3,4-dihydro-1H-isoquinolin-2-yl)-2-hydroxy-propyl]-2,2-dimethyl-8-[(1-methyl-4-piperidyl)oxy]-3H-1,4-benzoxazepin-5-one] |  | +++ (+++: more than 70%)
O=C1c2ccc(Br)cc2CCCN1C[C@H](O)CN1CCc2ccccc2C1 [Example 155, 7-bromo-2-[(2R)-3-(3,4-dihydro-1H-isoquinolin-2-yl)-2-hydroxy-propyl]-4,5-dihydro-3H-2-benzazepin-1-one] |  | + (+: 30% or less)
CCN1C(=O)CN(C[C@H](O)CN2CCc3ccccc3C2)C(=O)c2ccc(Br)cc21 [Example 158, 8-bromo-4-[(2R)-3-(3,4-dihydro-1H-isoquinolin-2-yl)-2-hydroxy-propyl]-1-ethyl-3H-1,4-benzodiazepin-2,5-dione] | 6.00 to 7.00 | 

— patent US11725001B2, “Bicyclic compound and use thereof” (SK BIOPHARMACEUTICALS CO., LTD., priority 2019, dated 2023)
